Data from patent US20240091226A1, “Forms and Formulations Of A Tyrosine Kinase Non-Receptor 1 (TNK1) Inhibitor” (Sumitomo Pharma Oncology, inc., priority 2021, published 2024).
Converted amounts (≈) assume the structure as drawn. “Also recorded” adds a separate entry of the source.

Experiments:
[1] = Hygroscopicity by dynamic vapor sorption (DVS); format: physicochemical; conditions: for Hygroscopicity (%), water uptake: DVS, 25° C./80% RH; for Form Change after DVS: XRPD before and after DVS
Experimental: Hygroscopicity. DVS isotherm plot was collected at 25° C. to investigate the solid form stability as a function of humidity. All of Freebase Type E+F, L-Malate Type B, Succinate Type B and Mesylate Type A were equilibrated at ambient humidity (70% RH or 80% RH) to prevent form change before testing.
DVS. Dynamic Vapor Sorption (DVS) was measured via a SMS (Surface Measurement Systems) DVS Intrinsic. The relative humidity at 25° C. was calibrated against deliquescence point of LiCl, Mg(NO3)2 and KCl.

[2] = Kinetic solubility in water, SGF and FaSSIF at 37° C.; format: physicochemical; conditions: for Kinetic solubility in water (in words): Freebase Type E+F as control
Experimental: Kinetic Solubility. Kinetic solubility of salt leads was measured in water, SGF and FaSSIF to evaluate their solubility and disproportionation risk, using Freebase Type E+F (818718-01-A) as control. […] After centrifugation, supernatants were collected for HPLC and pH tests, and wet cakes were collected for XRPD characterization.

[3] = Two-week solid-state stability (XRPD, HPLC purity); format: physicochemical; conditions: two weeks; for Stress stability / solid-state physical and chemical stability (in words): 25° C./60% RH and 40° C./75% RH (open); for Purity (area %) after storage / Purity vs Initial (%): open
Experimental: Solid-state Stability. Solid-state stability of Freebase Type E+F (818718-01-A), L-Malate Type B (818718-21-A1) and Mesylate Type A (818718-21-A5) were evaluated under 25° C./60% RH and 40° C./75% RH (open) for two weeks. Stability samples were characterized by XRPD to check any solid form change, and by HPLC to check purity change.

Apc^Min+/− mice = experiment: ApcMin mouse efficacy model; format: in vivo
Experimental: TNK1 upregulation is reported to play a role in the pathogenic process of intestinal barrier disruption in a transgenic mice model of increased TNK1 expression/activation (PMID: 30320600). Therefore, the efficacy of the compound of structural formula I was evaluated in germline mutant mouse model of intestinal neoplasia and cachexia, Apc^Min+/− model, which is also known to induce gut barrier dysfunction (PMID: 21914473). Apc^Min+/− mice are reported to start the development of tumors at approximately 4 weeks of age. Twenty female Apc^Min+/− mice (JAX Stock No: 002020) were enrolled in the study at the age of 10 weeks. Randomization was done based on the body weight, and animals were divided into four treatment groups (5 mice/group). […] Celecoxib is a COX-2 inhibitor, and was used as a positive control because it has been reported to prevent and regress adenomas in APC model (PMID: 11016626). Mice were sacrificed 2 hours after the last dose of total 10 weeks of dosing (71 days), at the age of 20 weeks. After dosing started, the animals were checked daily for morbidity and mortality.

| SMILES | Hygroscopicity (%), water uptake [1] [%] | Form Change after DVS [1] | S: solubility ([2]; FaSSIF, 1 hr) [µg/mL] | pH: final pH ([2]; FaSSIF, 1 hr) | S: solubility ([2]; FaSSIF, 4 hrs) [µg/mL] | pH: final pH ([2]; FaSSIF, 4 hrs) | S: solubility ([2]; FaSSIF, 24 hrs) [µg/mL] | pH: final pH ([2]; FaSSIF, 24 hrs) | S: solubility ([2]; H2O, 1 hr) [µg/mL] | pH: final pH ([2]; H2O, 1 hr) | S: solubility ([2]; H2O, 4 hrs) [µg/mL] | pH: final pH ([2]; H2O, 4 hrs) | S: solubility ([2]; H2O, 24 hrs) [µg/mL] | pH: final pH ([2]; H2O, 24 hrs) | pH: final pH ([2]; SGF, 1 hr) | pH: final pH ([2]; SGF, 4 hrs) | pH: final pH ([2]; SGF, 24 hrs) | Purity (area %) after storage ([3]; 25° C./60% RH) [area %] | Kinetic solubility in SGF (in words) ([2]; SGF) | Stress stability / solid-state physical and chemical stability (in words) [3] | other results |
| --- | --- | --- | --- | --- | --- | --- | --- | --- | --- | --- | --- | --- | --- | --- | --- | --- | --- | --- | --- | --- | --- |
| COc1cc(N2CCN(C)CC2)c(Cl)cc1Nc1ncc(Cl)c(Nc2cccnc2N2CCCC2=O)n1 [Freebase Type E+F] | 1.55 | No form change | 170 | 6.6 | 180 | 5.6 | 110 | 6.5 | 1.2 | 8.8 | 1.2 | 8.6 | 2.4 | 8.4 | 5.4 | 5.4 | 6.2 | 98.64 | relatively high solubility | good physical and chemical stability; also recorded: good physicochemical stability | Hygroscopicity (%), water uptake ([1]; listed as Freebase Type E + F): hygroscopic (1.55) %; Form Change after DVS ([1]; listed as Freebase Type E + F): No; Hygroscopicity (class) ([1]; based on water uptake at 25° C./80% RH): slightly hygroscopic (slightly hygroscopic - 0.2~2%); FC: form change ([2]; FaSSIF, 1 hr): Yes; FC: form change ([2]; FaSSIF, 4 hrs): Yes; FC: form change ([2]; FaSSIF, 24 hrs): Yes; FC: form change ([2]; H2O, 1 hr): Yes; FC: form change ([2]; H2O, 4 hrs): Yes; FC: form change ([2]; H2O, 24 hrs): Yes; solubility at 1 h ([2]; SGF, 37 °C, simulated gastric fluid, thermodynamic from solid, SGF, 1 hr, read-out: S: solubility): 7100 µg/mL (≈ 13.1 mM); solubility at 4 h ([2]; SGF, 37 °C, simulated gastric fluid, thermodynamic from solid, SGF, 4 hrs, read-out: S: solubility): 7200 µg/mL (≈ 13.2 mM); solubility at 24 h ([2]; SGF, 37 °C, simulated gastric fluid, thermodynamic from solid, SGF, 24 hrs, read-out: S: solubility): 7200 µg/mL (≈ 13.2 mM); FC: form change ([2]; SGF, 1 hr): Yes; FC: form change ([2]; SGF, 4 hrs): Yes; FC: form change ([2]; SGF, 24 hrs): Yes; Kinetic solubility in SGF (in words) ([2]; SGF, listed as Freebase Type E + F): showed relatively high solubility in SGF at 37 °C L-Malate; form after kinetic solubility test ([2]; all the three media (water, SGF, FaSSIF)): turned to Freebase Type E; Purity vs Initial (%) ([3]; 25° C./60% RH): 100.0%; Purity (area %) after storage ([3]; 40° C./75% RH): 98.75 area %; Purity vs Initial (%) ([3]; 40° C./75% RH): 100.1% |
| Cc1ccc(-c2cc(C(F)(F)F)nn2-c2ccc(S(N)(=O)=O)cc2)cc1 [celecoxib, reference compound] | – | – | – | – | – | – | – | – | – | – | – | – | – | – | – | – | – | – | – | – | reduction of spleen size compared to vehicle (Apc^Min+/− mice; 120 mg/kg): approximately 26%; decrease in number of polyps in the intestine compared to vehicle (Apc^Min+/− mice; 120 mg/kg once daily oral gavage, 10 weeks, female Apc^Min+/− mice): approximately 90% |

More lines, main results first:

| Hygroscopicity (%), water uptake [1] [%] | Form Change after DVS [1] | S: solubility ([2]; FaSSIF, 1 hr) [µg/mL] | pH: final pH ([2]; FaSSIF, 1 hr) | S: solubility ([2]; FaSSIF, 4 hrs) [µg/mL] | pH: final pH ([2]; FaSSIF, 4 hrs) | S: solubility ([2]; FaSSIF, 24 hrs) [µg/mL] | pH: final pH ([2]; FaSSIF, 24 hrs) | S: solubility ([2]; H2O, 1 hr) [µg/mL] | pH: final pH ([2]; H2O, 1 hr) | S: solubility ([2]; H2O, 4 hrs) [µg/mL] | pH: final pH ([2]; H2O, 4 hrs) | S: solubility ([2]; H2O, 24 hrs) [µg/mL] | pH: final pH ([2]; H2O, 24 hrs) | pH: final pH ([2]; SGF, 1 hr) | pH: final pH ([2]; SGF, 4 hrs) | pH: final pH ([2]; SGF, 24 hrs) | Purity (area %) after storage ([3]; 25° C./60% RH) [area %] | SMILES | Kinetic solubility in SGF (in words) ([2]; SGF) | Stress stability / solid-state physical and chemical stability (in words) [3] | other results |
| --- | --- | --- | --- | --- | --- | --- | --- | --- | --- | --- | --- | --- | --- | --- | --- | --- | --- | --- | --- | --- | --- |
| 8.22 | No form change | – | – | – | – | – | – | – | – | – | – | – | – | – | – | – | – | COc1cc(N2CCN(C)CC2)c(Cl)cc1Nc1ncc(Cl)c(Nc2cccnc2N2CCCC2=O)n1 [Succinate Type B] | – | – | – |
| 3.00 | No form change and No | 7200 | 5.0 | 6900 | 4.9 | 7400 | 4.9 | 7100 | 4.0 | 7200 | 4.0 | 6700 | 4.1 | 3.2 | 3.1 | 3.2 | 98.97 | COc1cc(N2CCN(C)CC2)c(Cl)cc1Nc1ncc(Cl)c(Nc2cccnc2N2CCCC2=O)n1 [L-Malate Type B] | showed relatively high solubility in SGF at 37 °C L-Malate | good physical and chemical stability; also recorded: good physicochemical stability | Kinetic solubility in FaSSIF (in words) ([2]; FaSSIF, compared with Mesylate Type A and Freebase Type E+F): Type B showed much higher solubility than Mesylate Type A; S: solubility ([2]; SGF, 1 hr): 7600 µg/mL; S: solubility ([2]; SGF, 4 hrs): 7700 µg/mL; S: solubility ([2]; SGF, 24 hrs): 6900 µg/mL; Kinetic solubility in water (in words) [2]: increased solubility; Purity vs Initial (%) ([3]; 25° C./60% RH): 100.0%; Purity (area %) after storage ([3]; 40° C./75% RH): 98.96 area %; Purity vs Initial (%) ([3]; 40° C./75% RH): 100.0% |
| 2.74 | No form change and No | 370 | 6.4 | 360 | 6.3 | 340 | 6.2 | 7500 | 6.1 | 7500 | 6.2 | 7400 | 6.0 | 2.5 | 2.6 | 2.5 | 99.31 | COc1cc(N2CCN(C)CC2)c(Cl)cc1Nc1ncc(Cl)c(Nc2cccnc2N2CCCC2=O)n1 [Mesylate Type A] | showed relatively high solubility in SGF at 37 °C L-Malate | good physical and chemical stability; also recorded: good physicochemical stability; also recorded: good physiochemical stability | FC: form change ([2]; FaSSIF, 1 hr): new form with low crystallinity and Yes; FC: form change ([2]; FaSSIF, 4 hrs): Yes; FC: form change ([2]; FaSSIF, 24 hrs): Yes; S: solubility ([2]; SGF, 1 hr): 8200 µg/mL; S: solubility ([2]; SGF, 4 hrs): 8000 µg/mL; S: solubility ([2]; SGF, 24 hrs): 7400 µg/mL; Kinetic solubility in water (in words) [2]: increased solubility; Purity vs Initial (%) ([3]; 25° C./60% RH): 100.1%; Purity (area %) after storage ([3]; 40° C./75% RH): 99.43 area %; Purity vs Initial (%) ([3]; 40° C./75% RH): 100.2% |
